Measurements from patent US10280179B2, “Spiroquinoxaline derivatives as inhibitors of non-apoptotic regulated cell-death” (Helmholtz Zentrum Munchen—Deutches Forschungszentrum Fur …, priority 2013, dated 2019).

What was measured:
Format in all cases: cell-based
Pfa1 cells = assay: Inhibition of non-apoptotic cell death after tamoxifen-induced GPx4 knockout in a recombinant cell line (Example B.4); settings: Mus musculus, read-out: Pfa1/TAM IC50
From the text: Inhibition of Non-Apoptotic Cell-Death by Compounds Disclosed Herein Using a Recombinant Cell Line
To combat high intracellular ROS levels, mammalian cells have evolved an intricate network of ROS scavenging in cells, in which the thioredoxin and glutathione (GSH) dependent systems prevail. […] Knockout of GPx4 in neurons causes massive neurodegeneration in cortical, cerebellar and hippocampal neurons underscoring the high relevance of ROS-induced cell death signaling in the brain. Briefly, immortalised fibroblasts from these mice were made to contain tamoxifen-inducible CreERT2, which catalyzes the functional ablation of both copies of GPx4 and resulting in a complete knockout of GPx4, a massive ROS burst, and cell death in cell culture. These cells (Pfa1 cells) were used to characterize compounds of the present invention, whereby tamoxifen (TAM) was given on day 0 along with the compound under test, and 72 hours later cell survival was evaluated using AlamarBlue.

[1] = Cellular toxicity, same assay as Example B.4 without TAM (Example B.5); settings: mouse; Pfa1 cells without TAM; read-out: TC50 (the source's name)
From the text: Cellular Toxicity of Compounds of the Invention
An estimate of the toxicity for compounds of the invention was obtained by using the same assay as described in Example B.4, but without the addition of TAM. […] Such TC50 values obtained for certain compounds disclosed herein, together with an approximate therapeutic window (estimated by dividing each TC50 by the corresponding IC50 determined from example B.4) are shown in Table 3.

[2] = tested on: mouse hippocampal cell line (Ht22); assay: Inhibition of glutamate-induced non-apoptotic cell death (Example B.2); settings: HT-22, Ht22 cells, glutamate-induced cell death, read-out: Ht22/GLU
From the text: Inhibition of Glutamate-Induced Non-Apoptotic Cell Death by Compounds of the Present Invention
Glutamate toxicity is conferred on cells from the mouse hippocampal cell line (Ht22) by inhibition of the cysteine/glutamate antiporter, System xc-, leading to impaired cysteine uptake and subsequent GSH depletion. This model is frequently used for mimicking glutathione depletion following oxidative stress in stroke, brain trauma and other neurodegenerative diseases and cellular conditions following ischemia (for example: van Leyen et al, J. Neurochem. 92:824-30 (2005)).
Compounds disclosed herein were evaluated for their ability to promote cell survival upon administration of a lethal dose of glutamate (GLU) to the cell-culture medium.
Briefly, Ht22 cells (ATCC) were propagated DMEM supplemented with 10% FBS/1% Penicillin-Streptomycin, and then seeded onto 96-well plates at a concentration of 2,000 cells/well in 100 μL of MEDIA, simultaneously with glutamate (Sigma Aldrich) to a final concentration of 5 mM, together with increasing concentrations of the compound to be tested (0.5 pM to 100 μM), and the plates incubated at 37° C./5% CO2 for 72 hours. Compound dilutions were prepared from 10 mM stocks dissolved in DMSO and diluted in media. Cells treated with glutamate alone were used as negative control and alpha-tocopherol (Sigma Aldrich) was used as positive control. Compound concentrations were tested in triplicate. After incubation, cell survival was detected and quantified as described in Example B.1.

Row | Structure (SMILES) | IC50 (Pfa1 cells) [nM] | CC50 [1] [nM] | IC50 [2] [nM]
1 | c1ccc(CNC2=Nc3ccccc3NC23CCCNCC3)cc1 (stereo not drawn) [N-212] | < 1000 | 10000 to 20000 | < 1000
2 | CN1CCC2(CC1)Nc1ccccc1N=C2NCc1ccc(Cl)cc1 [N-213] | < 100 | 5000 to 10000 | < 200
3 | Cc1cc2c(cc1C)NC1(CCNCC1)C(NCc1ccc(Cl)cc1)=N2 [N-214] | < 10 | 1000 to 2000 | < 50
4 | CN1CCC2(CC1)Nc1ccccc1N=C2NCc1cccc(C(F)(F)F)c1 [N-215] | < 50 | 5000 to 10000 | < 50
5 | CCCCCCCC(=O)N1CCC2(CC1)Nc1ccccc1N=C2NCc1ccccc1 [N-216] | < 500 | 10000 to 20000 | < 500
6 | CC(NC1=Nc2ccccc2NC12CCNCC2)c1ccccc1 (stereo not drawn) [N-218] | < 500 | 20000 to 50000 | < 500
7 | Fc1ccc(CNC2=Nc3ccccc3NC23CCNCC3)c(F)c1 [N-221] | < 200 | 20000 to 50000 | < 200
8 | CC(CCc1ccccc1)NC1=Nc2ccccc2NC12CCNCC2 (stereo not drawn) [N-222] | < 200 | 20000 to 50000 | < 50
9 | Cc1cccc(CNC2=Nc3cc(Cl)c(Cl)cc3NC23CCNCC3)c1 [N-224] | < 10 | 1000 to 2000 | < 50
10 | c1ccc(CCCCNC2=Nc3ccccc3NC23CCNCC3)cc1 [N-225] | < 50 | 1000 to 2000 | < 1000
11 | c1ccc(CCNC2=Nc3ccccc3NC23CCNCC3)cc1 [N-226] | < 100 | 10000 to 20000 | < 100
12 | CC(C)(C)c1ccc(CNC2=Nc3ccccc3NC23CCNCC3)cc1 [N-227] | < 10 | 500 to 1000 | < 10
13 | c1ccc(CCCNC2=Nc3ccccc3NC23CCNCC3)cc1 [N-228] | < 100 | 2000 to 5000 | < 50
14 | CN1CCC2(CC1)Nc1cc(F)c(F)cc1N=C2NCc1ccccc1 [N-229] | < 100 | 5000 to 10000 | < 100
15 | Cc1cc2c(cc1C)NC1(CCNCC1)C(NCc1ccc(Cl)c(Cl)c1)=N2 [N-232] | < 10 | 1000 to 2000 | < 10
16 | Cc1cc2c(cc1C)NC1(CCN(C)CC1)C(NCc1ccccc1)=N2 [N-233] | < 200 | 10000 to 20000 | < 100
17 | CCCCCCCCN1CCC2(CC1)Nc1ccccc1N=C2NCc1ccccc1 [N-234] | < 100 | 5000 to 10000 | < 100
18 | Cc1cccc(CNC2=Nc3cc(C)c(C)cc3NC23CCNCC3)c1 [N-235] | < 50 | 1000 to 2000 | < 50
19 | Clc1cc2c(cc1Cl)NC1(CCCNCC1)C(NCc1ccccc1)=N2 (stereo not drawn) [N-236] | < 100 | 2000 to 5000 | < 50
20 | Fc1cccc(CNC2=Nc3ccccc3NC23CCOCC3)c1 [O/S-5] | < 2000 | 50000 to 100000 | < 5000
21 | Cc1cccc(CNC2=Nc3ccccc3NC23CCOCC3)c1 [O/S-11] | < 2000 | 50000 to 100000 | < 5000
22 | COc1cccc(CNC2=Nc3ccccc3NC23CCOCC3)c1 [O/S-14] | < 5000 | 50000 to 100000 | < 5000

Row | Structure (SMILES) | IC50 (Pfa1 cells) [nM] | CC50 [1] [nM] | IC50 [2] [nM]
23 | FC(F)(F)c1cccc(CNC2=Nc3ccccc3NC23CCOCC3)c1 [O/S-23] | < 500 | 20000 to 50000 | < 1000
24 | Fc1cc(Cl)ccc1CNC1=Nc2ccccc2NC12CCOCC2 [O/S-61] | < 1000 | 20000 to 50000 | < 1000
25 | Clc1cccc(CCNC2=Nc3ccccc3NC23CCOCC3)c1 [O/S-79] | < 1000 | 20000 to 50000 | < 1000
26 | Clc1ccccc1CNC1=Nc2ccccc2NC12CCSCC2 [O/S-167] | < 500 | 20000 to 50000 | < 1000
27 | Clc1ccc(CNC2=Nc3ccccc3NC23CCSCC3)cc1 [O/S-169] | < 1000 | 20000 to 50000 | < 1000
28 | FC(F)(F)c1cccc(CNC2=Nc3ccccc3NC23CCSCC3)c1 [O/S-189] | < 5000 | 50000 to 100000 | < 5000
29 | Fc1cccc(F)c1CNC1=Nc2ccccc2NC12CCOCC2 [O/S-341] | < 2000 | 50000 to 100000 | < 2000
30 | c1ccc(CCCNC2=Nc3ccccc3NC23CCOCC3)cc1 [O/S-343] | < 2000 | 20000 to 50000 | < 5000
31 | Cc1cc(C)cc(CNC2=Nc3ccccc3NC23CCOCC3)c1 [O/S-344] | < 1000 | 20000 to 50000 | < 2000
32 | Fc1cc2c(cc1F)NC1(CCOCC1)C(NCc1ccccc1)=N2 [O/S-346] | < 500 | 50000 to 100000 | < 1000
33 | c1ccc(CCNC2=Nc3ccccc3NC23CCOCC3)cc1 [O/S-347] | < 5000 | 50000 to 100000 | < 5000
34 | CC(NC1=Nc2ccccc2NC12CCOCC2)c1ccccc1 (stereo not drawn) [O/S-348] | < 5000 | 50000 to 100000 | < 5000
35 | Clc1cc2c(cc1Cl)NC1(CCSCC1)C(NCc1ccccc1)=N2 [O/S-349] | < 200 | 20000 to 50000 | < 500
36 | CC(C)(C)c1ccc(CNC2=Nc3ccccc3NC23CCOCC3)cc1 [O/S-350] | < 500 | 20000 to 50000 | < 500
37 | Fc1cccc(F)c1CNC1=Nc2ccccc2NC12CCSCC2 [O/S-351] | < 1000 | 50000 to 100000 | < 1000
38 | c1ccc(C(CNC2=Nc3ccccc3NC23CCOCC3)c2ccccc2)cc1 [O/S-352] | < 1000 | 20000 to 50000 | < 1000
39 | CC(CCc1ccccc1)NC1=Nc2ccccc2NC12CCOCC2 (stereo not drawn) [O/S-353] | < 500 | 20000 to 50000 | < 2000
40 | Clc1ccc(CNC2=Nc3ccccc3NC23CCOCC3)c(Cl)c1 [O/S-354] | < 500 | 20000 to 50000 | < 500
41 | Fc1ccc(CNC2=Nc3ccccc3NC23CCOCC3)c(F)c1 [O/S-355] | < 2000 | 50000 to 100000 | < 2000
42 | c1ccc(CCCNC2=Nc3ccccc3NC23CCSCC3)cc1 [O/S-356] | < 2000 | 20000 to 50000 | < 2000
43 | Cc1cc(C)cc(CNC2=Nc3ccccc3NC23CCSCC3)c1 [O/S-357] | < 500 | 10000 to 20000 | < 500
44 | c1ccc(CCCCNC2=Nc3ccccc3NC23CCOCC3)cc1 [O/S-358] | < 2000 | 10000 to 20000 | < 2000
